# Experimental data: patent US8343966B2, “Organic compounds” (Novartis AG, priority 2008, dated 2013)
# Target: T1, human ALK5 (ALK5 T204D kinase domain) (Homo sapiens, UniProt P36897, T204D)
# T1 construct: The kinase domain of human ALK5 (amino acids 200-503); made in house; host or cells: insect cells (baculovirus)
# T1 sequence (P36897 200-503 T204D): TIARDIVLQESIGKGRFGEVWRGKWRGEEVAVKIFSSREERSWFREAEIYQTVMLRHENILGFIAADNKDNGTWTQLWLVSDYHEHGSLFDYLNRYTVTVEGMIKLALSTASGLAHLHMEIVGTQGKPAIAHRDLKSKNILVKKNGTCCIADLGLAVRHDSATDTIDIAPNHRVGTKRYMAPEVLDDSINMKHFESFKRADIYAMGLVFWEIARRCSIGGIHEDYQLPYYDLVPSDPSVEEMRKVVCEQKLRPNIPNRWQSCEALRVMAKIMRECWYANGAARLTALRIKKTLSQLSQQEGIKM
# Experiment: ALK5 kinase assay, [33P] phosphate incorporation into casein
# Assay type: biochemical
# Conditions: casein substrate, 1 μM unlabelled ATP
# Description: The kinase activity of ALK5 is assessed by measuring radiolabelled phosphate [33P] incorporation in to the generic substrate, casein. The kinase domain of human ALK5 (amino acids 200-503) is fused to an N-terminal histidine tag. The kinase activity of ALK5 is rendered constitutive via point mutation at amino acid 204 (threonine to aspartate modification, ALK5 T204D) and the kinase construct is engineered to be expressed from a baculovirus expression construct in insect cells. The purified, recombinantly-expressed histidine-tagged ALK5 T204D protein is dissolved at 5.4 mg/ml in 50 mM Tris-HCl pH 8.0, 150 mM NaCl, 5 mM DTT. ALK5 T204D is dissolved to 2.5 μg/ml in assay buffer (Assay buffer: 20 mM Tris-HCl pH 7.4, 10 mM MgCl2, 2 mM MnCl2) on the day of use.
# Test compounds and reference compounds are dissolved in assay buffer without DTT containing 5% (v/v) DMSO. Stock solutions of test and reference compounds are diluted in assay buffer with DTT (1.25 mM) containing 4.5% (v/v) DMSO. 10 μl of test or reference compound are added to the appropriate wells of 96 well U-bottomed plate. Total enzyme activity is determined by measuring ALK5 T204D activity in the absence of ALK5 kinase inhibitor reference compounds. Non-specific binding (NSB) is determined by measuring the activity of ALK5 T204D in the presence of ALK5 kinase inhibitor reference compounds. 10 μl of dephosphorylated casein stock solution (dephosphorylated casein is dissolved in ddH2O at 20 mg/ml) is added per well (200 μg/well final assay concentration). 20 μl of ALK5 T204D (2.5 μg/ml solution) is added per well (50 ng/well final assay concentration). The plates are left to incubate at room temperature for 10 minutes.
# 10 μl of ATP mix is added to the well to initiate the reaction (0.66 nM [^33P]ATP/1 μM unlabelled ATP/well final assay concentration). The ATP mix is prepared as follows, unlabelled ATP (3 mM) is dissolved in ddH2O and pH adjusted to 7.4. The stock concentration of [^33P]ATP is 10 μCi/μl. The appropriate volume of [^33P]ATP is added to unlabelled ATP solution such that the final assay concentration per well is 0.1 μCi. Following addition of the ATP mix, the plates are incubated at room temperature for 50 minutes. The kinase reaction is terminated by the addition of 50 μL Stop Buffer (20 mM Tris-HCl pH 7.4, 10 mM EDTA).
# 75 μl/well from the reaction plate is transferred to a Multiscreen-IP plate (MultiScreen-IP plates are prepared by added 50 μL of 70% (v/v) ethanol per well and incubated for 5 minutes at room temperature. The ethanol is removed by aspiration via a MultiScreen HTS Vacuum Manifold unit (Millipore, Cat no: MSVMHT500). The plates are washed twice by adding 200 μl/well ddH2O). The MultiScreen-IP plate is incubated at room temperature for 30 minutes to allowing binding of casein to the plate. The MultiScreen-IP plates are washed three times by adding 200 μl/well 100 mM phosphoric acid solution and the gasket is carefully removed from the back of the MultiScreen-IP plate and the plate dried in the oven for 30 minutes. The MultiScreen-IP plate is backsealed, 50 μL of Microscint™20 is added, then the plates are topsealed and radiolabelled casein detected and quantified on a TopCount™ plate-reader using the ^33P scintillation protocol.
row,IC50 [nM],SMILES
1,74,"[2H]C([2H])([2H])N1CCN(Cc2ccc(-c3cncc(-c4cc(-c5ccccn5)nc(C(C)(C)O)c4)c3)cc2)CC1 [Example 2.85, 2-{5″-[4-(4-Methyl-d3-piperazin-1-ylmethyl)-phenyl]-[2,2′;4′,3″]terpyridin-6′-yl}-propan-2-ol]"
2,92,"Cn1cc(-c2cncc(-c3cc(-c4ccccn4)nc(C(C)(C)O)c3)c2)cn1 [Example 2.86, 2-[5″-(1-Methyl-1H-pyrazol-4-yl)-[2,2′;4′,3″]terpyridin-6′-yl]-propan-2-ol]"
3,139,"CC1CN(C(=O)c2ccc(-c3cncc(-c4cc(-c5ccccn5)nc(C(C)(C)O)c4)c3)cc2)CC(C)N1C (centres unmarked) [Example 2.87, {4-[6′-(1-Hydroxy-1-methyl-ethyl)-[2,2′;4′,3″]terpyridin-5″-yl]-phenyl}-(3,4,5-trimethyl-piperazin-1-yl)-methanone]"
4,22,"CC(C)(O)c1cc(-c2cncc(-c3cnn(C4CCNCC4)c3)c2)cc(-c2ccccn2)n1 [Example 2.88, 2-[5″-(1-Piperidin-4-yl-1H-pyrazol-4-yl)-[2,2′;4′,3″]terpyridin-6′-yl]-propan-2-ol]"
5,17,CC(C)N1CCC(n2cc(-c3cncc(-c4cc(-c5ccccn5)nc(C(C)(C)O)c4)c3)cn2)CC1 [Example 2.89]
6,71,"Cc1cc(CN2CCN(C(C)C)CC2)ccc1-c1cncc(-c2cc(-c3ccccn3)nc(C(C)(C)O)c2)c1 [Example 2.90, 2-{5″-[4-(4-Isopropyl-piperazin-1-ylmethyl)-2-methyl-phenyl]-[2,2′;4′,3″]terpyridin-6′-yl}-propan-2-ol]"
7,32,"C[C@@H]1CN(Cc2ccc(-c3cncc(-c4cc(-c5ccccn5)nc(C(C)(C)O)c4)c3)cc2)CCN1 [Example 2.91, 2-{5″-[4-((R)-3-Methyl-piperazin-1-ylmethyl)-phenyl]-[2,2′;4′,3″]terpyridin-6′-yl}-propan-2-ol]"
8,35,"CC1(C)CN(Cc2ccc(-c3cncc(-c4cc(-c5ccccn5)nc(C(C)(C)O)c4)c3)cc2)CCN1 [Example 2.92, 2{-5″-[4-(3,3-Dimethyl-piperazin-1-ylmethyl)-phenyl]-[2,2′;4′,3″]terpyridin-6′-yl}-propan-2-ol]"
9,209,"CC(C)N1CCN(Cc2ccc(-c3cncc(-c4cc(-c5ccccn5)nc(C(C)(C)C)c4)c3)cc2)CC1 [Example 2.95, 6′-tert-Butyl-5″-[4-(4-isopropyl-piperazin-1-ylmethyl)-phenyl]-[2,2′;4′,3″]terpyridine]"
10,11,"[2H]C([2H])([2H])Nc1cc(-c2cncc(-c3ccc(CN4CCN(C(C)C)CC4)cc3)c2)cc(-c2ccccn2)n1 [Example 2.100, {5″-[4-(4-Isopropyl-piperazin-1-ylmethyl)-phenyl]-[2,2′;4′,3″]terpyridin-6′-yl}-methyl-d3-amine]"
11,14,"[2H]C([2H])([2H])Nc1cc(-c2cncc(-c3ccc(CN4CCNCC4)cc3)c2)cc(-c2ccccn2)n1 [Example 2.102, Methyl-d3-[5″-(4-piperazin-1-ylmethyl-phenyl)-[2,2′;4′,3″]terpyridin-6′-yl]-amine]"
12,13,"[2H]C([2H])([2H])Nc1cc(-c2cncc(-c3cnn(C)c3)c2)cc(-c2ccccn2)n1 [Example 2.104, Methyl-d3-[5″-(1-methyl-1H-pyrazol-4-yl)-[2,2′;4′,3″]terpyridin-6′-yl]-amine]"
13,9,"CNc1cc(-c2cncc(-c3ccc(C(=O)N4CCN(C)CC4)cc3)c2)cc(-c2ccccn2)n1 [Example 2.106, [4-(6′-Methyl-d3-amino-[2,2′;4′,3″]terpyridin-5″-yl)-phenyl]-(4-methyl-d3-piperazin-1-yl)-methanone]"
14,13,"[2H]C([2H])([2H])Nc1cc(-c2cncc(-c3ccc(CN4CCN(C(C)(C)C)CC4)cc3)c2)cc(-c2ccccn2)n1 [Example 2.107, {5″-[4-(4-tert-Butyl-piperazin-1-ylmethyl)-phenyl]-[2,2′;4′,3″]terpyridin-6′-yl}-methyl-d3-amine]"
15,154,"CCNc1cc(-c2cncc(-c3cccc(CN4CCN(C(C)(C)C)CC4)c3)c2)cc(-c2ccccn2)n1 [Example 2.111, {5″-[3-(4-tert-Butyl-piperazin-1-ylmethyl)-phenyl]-[2,2′;4′,3″]terpyridin-6′-yl}-ethyl-amine]"
16,42,"CCNc1cc(-c2cncc(-c3cccc(CN4CCN(C(C)C)CC4)c3)c2)cc(-c2ccccn2)n1 [Example 2.114, Ethyl-{5″-[3-(4-isopropyl-piperazin-1-ylmethyl)-phenyl]-[2,2′;4′,3″]terpyridin-6′-yl}-amine]"
17,48,"CCNc1cc(-c2cncc(-c3cc(C)cc(CN)c3)c2)cc(-c2ccccn2)n1 [Example 2.116, [5″-(3-Aminomethyl-5-methyl-phenyl)-[2,2′;4′,3″]terpyridin-6′-yl]-ethyl-amine]"
18,64,"CC(C)(C)N1CCN(Cc2cccc(-c3cncc(-c4cc(NC5CC5)nc(-c5ccccn5)c4)c3)c2)CC1 [Example 2.119, {5″-[3-(4-tert-Butyl-piperazin-1-ylmethyl)-phenyl]-[2,2′;4′,3″]terpyridin-6′-yl}-cyclopropyl-amine]"
19,22,"CC(C)(C)N1CCN(Cc2ccc(-c3cncc(-c4cc(NC5CC5)nc(-c5ccccn5)c4)c3)cc2)CC1 [Example 2.120, {5″-[4-(4-tert-Butyl-piperazin-1-ylmethyl)-phenyl]-[2,2′;4′,3″]terpyridin-6′-yl}-cyclopropyl-amine]"
20,38,"Cc1ccc(-c2cc(-c3cncc(-c4ccc(CN5CCN(C(C)C)CC5)cc4)c3)cc(NC3CC3)n2)o1 [Example 2.125, Cyclopropyl-[5-[4-(4-isopropyl-piperazin-1-ylmethyl)-phenyl]-6′-(5-methyl-furan-2-yl)-[3,4′]bipyridinyl-2′-yl]-amine]"
21,357,"CC(C)Nc1cc(-c2cncc(-c3cccc(CN4CCN(C(C)(C)C)CC4)c3)c2)cc(-c2ccccn2)n1 [Example 2.133, {5″-[3-(4-tert-Butyl-piperazin-1-ylmethyl)-phenyl]-[2,2′;4′,3″]terpyridin-6′-yl}-isopropyl-amine]"
22,22,"CC(C)Nc1cc(-c2cncc(-c3ccc(CN4CCN(C(C)(C)C)CC4)cc3)c2)cc(-c2ccccn2)n1 [Example 2.134, {5″-[4-(4-tert-Butyl-piperazin-1-ylmethyl)-phenyl]-[2,2′;4′,3″]terpyridin-6′-yl}-isopropyl-amine]"
23,35,"CC(C)(C)N1CCN(Cc2ccc(-c3cncc(-c4cc(N)nc(-c5ccccn5)c4)c3)cc2)CC1 [Example 2.158, 5″-[4-(4-tert-Butyl-piperazin-1-ylmethyl)-phenyl]-[2,2′;4′,3″]terpyridin-6′-ylamine]"
24,24,"Nc1cc(-c2cncc(-c3ccc(CN4CCNCC4)cc3)c2)cc(-c2ccccn2)n1 [Example 2.159, 5″-(4-piperazin-1-ylmethyl-phenyl)-[2,2′;4′,3″]terpyridin-6′-ylamine]"
25,10,"CNc1cc(-c2cncc(-c3ccc(CN4CCNCC4)cc3)c2)cc(-c2ccccn2)n1 [Example 2.172, Methyl-[5″-(4-piperazin-1-ylmethyl-phenyl)-[2,2′;4′,3″]terpyridin-6′-yl]-amine]"
26,5,"CNc1cc(-c2cncc(-c3cnn(C4CCNCC4)c3)c2)cc(-c2ccn(C)n2)n1 [Example 2.179, Methyl-[6′-(1-methyl-1H-pyrazol-3-yl)-5-(1-piperidin-4-yl-1H-pyrazol-4-yl)-[3,4′]bipyridinyl-2′-yl]-amine]"
